{"source": "patent US20150148320A1", "about": "“COSMETIC USE OF SALICYLIC ACID DERIVATIVES” (Avon Products, Inc., priority 2013, published 2015)", "key": {"[1]": {"molecular_target": "T1, recombinant human (rh) KLK5 (Homo sapiens, UniProt Q9Y337)", "T1 construct": "purchased R&D Systems 1108-SE", "T1 sequence (Q9Y337 23-293)": "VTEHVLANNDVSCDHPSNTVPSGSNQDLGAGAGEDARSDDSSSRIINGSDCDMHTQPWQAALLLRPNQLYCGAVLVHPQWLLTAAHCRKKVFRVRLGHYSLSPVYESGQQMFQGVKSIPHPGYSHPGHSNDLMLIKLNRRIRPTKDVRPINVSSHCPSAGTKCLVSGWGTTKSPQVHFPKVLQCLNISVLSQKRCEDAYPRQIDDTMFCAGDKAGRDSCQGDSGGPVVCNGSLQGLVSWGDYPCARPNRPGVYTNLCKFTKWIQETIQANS", "test": "Enzymatic activity of Kallikrein 5 (KLK5), fluorogenic peptide substrate Boc-V-P-R-AMC", "format": "biochemical", "procedure": "Compound 1 was assayed for enzymatic activity of Kallikrein 5 (KLK5) as follows, and its activity compared to that of salicylic acid. The KLK5 activity of compound 1 was calculated as a percentage of KLK5 activity relative to salicylic acid. The KLK5 activity of compound 1 was about 165% relative to the KLK5 activity of salicylic acid.\nIn the stratum corneum, skin's outermost layer, cell-to-cell cohesion depends primarily on proteins known as the corneodesmosomes. During skin remodeling and renewal dead cells are shed from the skin surface by the action of native proteases that break down the corneodesmosomes. […] Hypothetically, up-regulation of the activities of these proteases using different active candidates could be utilized to increase the rate of shedding of dead skin, thus providing a natural means for skin exfoliation. To this end, the enzymatic activity of a member of the KLK family, recombinant human (rh) KLK5, was monitored following pre-incubation with actives and measuring the rate of peptide bond cleavage of a synthetic substrate.\nEnzymatic activity of KLK5 was measured by incubating recombinant human (rh) KLK5 protease (R&D Systems, Cat No. 1108-SE) with a specific fluorogenic peptide substrate Boc-V-P-R-AMC (R& D Systems, Cat No. ES011). The substrate is conjugated to a quenched fluorescent group. […] Increase in fluorescence reading indicates an increase in rhKLK5 activity. […] After 60 seconds of incubation, fluorescence was measured at 340 nm (Excitation wavelength) and 485 nm (Emission wavelength) every 1 minute for 7 minutes. Rate (kinetics) of enzyme activity was calculated as follows: Rate of enzyme activity=Change of fluorescent reading (after background correction) Change of reaction time (min) Percent change of activity due to a test compound was calculated by comparing rate of enzyme activity in the presence of the test compound to that of a control without the test compound and statistical significance was calculated using a t-test. […]"}, "[2]": {"test": "Skin PAMPA parallel artificial membrane penetration assay", "format": "in vitro ADME", "settings": "50 μM, donor pH 4.25, acceptor pH 7.4, two hours incubation", "procedure": "Several salicylic acid derivatives were assessed for their ability to penetrate skin. Each of the compounds was formulated in an aqueous buffer, with a final pH of 4.25 at a concentration of 50 μM. The skin permeability of the compounds was measured using a high throughput transdermal permeability model, the parallel artificial membrane penetration assay (Skin PAMPA™), which uses a skin mimetic artificial membrane that simulates the barrier properties of the strateum corneum.\nBriefly, the Skin PAMPA™ assay is a sandwich assay that utilizes two 96-well plate assemblies, one of which acts as the acceptor chambers (comprising a buffer), and one of which acts as the donor chambers (comprising a buffer and the compound to be tested). […] After an incubation period, the donor and acceptor chambers are analyzed for the amount of compound present.\nIn the current experiments, the acceptor chamber included an acceptor solution made from Prisma™ HT buffer solution (Pion, Inc.) that was adjusted to a pH of 7.4±0.05 using 1.0 M NaOH, and the donor chamber included a donor solution made from Prisma™ HT buffer solution (Pion, Inc.) that was adjusted to a pH of 4.25±0.05 using 1.0 M NaOH. […] Effective permeability was then calculated by the same method as Sinko et al., Eur. J. Pharm. […]"}}, "data": [{"smiles": "CCOC(=O)c1cc2c(c(C(=O)OCC)c1O)CCCC2", "note": "[Compound 1]", "values": [{"measurement": "stimulation of KLK5 (in words)", "setting": "[1]; rhKLK5", "result": "very potent stimulator of KLK5"}, {"measurement": "KLK5 activity as a percentage relative to the KLK5 activity of salicylic acid", "setting": "[1]; rhKLK5, rate of enzyme activity relative to salicylic acid", "result": "about 165%"}, {"measurement": "KLK5 activity as compared to salicylic acid (in words)", "setting": "[1]; rhKLK5, FIG. 1 asterisk", "result": "superior KLK5 activity"}, {"measurement": "skin permeability as compared to salicylic acid (in words)", "setting": "[2]", "result": "higher permeability"}]}]}
